# Experiments:
# HUVEC [1] = type: cell-based
# Description: To determine the effect of spheroid culture on cell viability, spheroids and fibronectin-adherent HUVEC were recovered between 6 and 72 hours after plating, serially diluted and further cultured for an additional 48 hours before relative cell number was determined. A shift-to-the left or a flattening of the dilution curve indicates decreased viability.
# To test whether integrins modulate TNF-induced apoptosis, we cultured HUVEC on fibronectin (integrin-dependent adhesion) or as spheroids (integrin-independent adhesion) in the absence or presence of TNF (200 ng/ml) and of IFNγ (330 ng/ml), an enhancer of TNF cytotoxicity (Dealtry et al., Eur. J. Immunol. 17, 689-693 (1987)). […] To examine the effect of TNF±IFNγ on cell survival we determined the viability of untreated and treated cultures. […]
# For survival, HUVEC spheroids plated at 1×10^6 cells/ml in 1% BSA-coated 24 mm wells, or adherent cells plated at 4×10^5 cells in 3 μg/ml fibronectin-coated 35 mm wells of non-tissue culture plates (Evergreen Scientific), were stimulated with TNFα (200 ng/ml=10^4 U/ml)±IFNγ (330 ng/ml=10^4 U/ml). […] Relative cell number was assessed 48 hours later by measuring MTT conversion during the last 4 hours of culture. […]
# HUVEC [2] = assay: Detection of apoptotic HUVEC in culture (YoPro-1 staining); type: cell-based, human; conditions: peptide 300 μM; TNF 200 ng/ml; IFNγ 330 ng/ml
# Description: To test whether integrins modulate TNF-induced apoptosis, we cultured HUVEC on fibronectin (integrin-dependent adhesion) or as spheroids (integrin-independent adhesion) in the absence or presence of TNF (200 ng/ml) and of IFNγ (330 ng/ml), an enhancer of TNF cytotoxicity (Dealtry et al., Eur. J. Immunol. 17, 689-693 (1987)). […] In contrast, spheroids treated with TNF±IFNγ increased uptake of YoPro-1 (an increase suppressed by caspase inhibitors BOC, Z-VAD, IETD and DVED), DNA fragmentation, caspase-3 activation and cleavage of PARP (FIG. 2a, 2b and data not shown). To examine the effect of TNF±IFNγ on cell survival we determined the viability of untreated and treated cultures. […] Treatment with IFNγ alone was not cytotoxic (data not shown). HUVEC adhere to immobilized fibronectin via αVβ3 and α5β1 integrins (Rüegg et al., Nature Med. 4, 408-414 (1998)). To test for the individual contribution of these integrins to cell survival on fibronectin, we cultured HUVEC on plastic-immobilized mAbs (imAbs) directed against αVβ3, α1, α5 and α4 integrins.
# For morphological evaluation, spheroids were embedded in Epon (Fluka Chemie) and thick sections were stained with 1% Methylene/Azur blue. For immunostaining, frozen spheroid sections were fixed in 4% (Fluka Chemis, Buchs, Switzerland) formaldehyde. After blocking with 1% BSA, sections were sequentially incubated for 1 hour with primary mAb (20 μg/ml) and a Cyan3-labeled GaM antiserum (West Grove, Pa., USA). For the TUNEL reaction, frozen spheroids sections were fixed in 4% paraformaledhyde and processed as described (Ruegg et al., I.e.). Spherouids were countsrstained with propidium iodide for total DNA content. […] The apoptosis index was determined by calculating the ratio between the green (TUNEL staining of fragmented DNA) and red (propidium iodide staining by total DNA) pixels. Number of analyzed spheroids per condition were: C, 31; T, 21; TI, 12. […] Cultures were viewed by inverted fluorescence microscopy (Leica DM IRB, Heerbrugg, Switzerland). […]
# integrin αVβ3 = target: T1, integrin αVβ3 (Homo sapiens, UniProt P05106+P06756); assay: Cell detachment assay, HUVEC on gelatin; type: cell-based; conditions: graded peptide concentrations; 2 hours
# T1 construct: EMD121974 disrupted αVβ3-mediated HUVEC adhesion on gelatin; endogenous in cells; host or cells: HUVEC (primary, passages 3 to 7)
# T1 sequence (P06756 31-889 limits assumed): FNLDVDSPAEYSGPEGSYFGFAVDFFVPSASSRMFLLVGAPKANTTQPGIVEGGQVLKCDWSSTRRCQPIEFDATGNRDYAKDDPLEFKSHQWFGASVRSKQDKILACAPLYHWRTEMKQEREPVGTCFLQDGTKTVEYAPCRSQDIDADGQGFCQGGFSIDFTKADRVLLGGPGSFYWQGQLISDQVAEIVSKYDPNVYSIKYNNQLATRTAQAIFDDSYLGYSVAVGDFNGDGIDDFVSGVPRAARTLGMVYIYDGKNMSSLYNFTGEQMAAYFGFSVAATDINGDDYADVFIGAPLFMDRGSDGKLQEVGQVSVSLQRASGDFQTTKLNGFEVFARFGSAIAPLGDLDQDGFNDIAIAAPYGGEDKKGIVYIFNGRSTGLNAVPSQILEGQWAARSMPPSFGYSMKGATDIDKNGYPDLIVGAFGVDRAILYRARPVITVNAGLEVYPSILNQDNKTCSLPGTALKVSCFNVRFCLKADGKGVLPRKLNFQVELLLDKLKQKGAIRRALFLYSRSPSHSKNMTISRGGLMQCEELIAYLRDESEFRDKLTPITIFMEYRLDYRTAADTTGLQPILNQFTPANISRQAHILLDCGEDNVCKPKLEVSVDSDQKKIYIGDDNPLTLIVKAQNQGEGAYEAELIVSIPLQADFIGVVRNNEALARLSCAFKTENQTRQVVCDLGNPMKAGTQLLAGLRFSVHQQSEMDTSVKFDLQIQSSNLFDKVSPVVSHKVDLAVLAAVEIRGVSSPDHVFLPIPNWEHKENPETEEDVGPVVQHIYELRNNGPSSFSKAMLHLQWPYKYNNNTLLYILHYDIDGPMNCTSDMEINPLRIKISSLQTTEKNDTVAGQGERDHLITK
# T1 sequence (P06756 891-1048 partner limits assumed): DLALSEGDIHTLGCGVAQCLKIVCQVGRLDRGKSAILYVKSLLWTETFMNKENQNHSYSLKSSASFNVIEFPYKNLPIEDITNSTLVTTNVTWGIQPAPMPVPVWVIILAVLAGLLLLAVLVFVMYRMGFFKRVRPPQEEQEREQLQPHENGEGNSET
# T1 sequence (P05106 27-788): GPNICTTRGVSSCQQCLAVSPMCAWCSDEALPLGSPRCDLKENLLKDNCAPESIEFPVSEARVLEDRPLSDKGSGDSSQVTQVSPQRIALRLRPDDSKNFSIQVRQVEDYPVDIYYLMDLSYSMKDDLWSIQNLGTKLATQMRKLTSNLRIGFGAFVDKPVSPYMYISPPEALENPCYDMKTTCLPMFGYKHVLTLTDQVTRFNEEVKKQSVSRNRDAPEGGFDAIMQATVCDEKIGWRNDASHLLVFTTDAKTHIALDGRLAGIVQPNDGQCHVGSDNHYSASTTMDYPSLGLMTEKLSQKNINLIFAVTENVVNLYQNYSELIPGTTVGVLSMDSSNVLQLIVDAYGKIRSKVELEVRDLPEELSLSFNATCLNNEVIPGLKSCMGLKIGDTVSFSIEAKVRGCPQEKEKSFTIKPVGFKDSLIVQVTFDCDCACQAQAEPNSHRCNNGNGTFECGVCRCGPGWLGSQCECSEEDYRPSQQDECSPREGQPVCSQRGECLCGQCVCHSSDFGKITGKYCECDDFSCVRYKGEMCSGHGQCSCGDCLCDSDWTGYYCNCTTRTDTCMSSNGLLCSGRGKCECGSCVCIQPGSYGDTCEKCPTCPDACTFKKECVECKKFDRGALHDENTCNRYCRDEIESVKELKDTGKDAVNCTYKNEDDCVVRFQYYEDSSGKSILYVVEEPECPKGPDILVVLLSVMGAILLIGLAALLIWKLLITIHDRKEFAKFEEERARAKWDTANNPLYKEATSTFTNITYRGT
# Description: (§1) Maxisorp II ELISA plates were coated with 1 μg/well of fibrobnectin or 0.5% gelatin overnight at 4° C. in PBS. Coated wells were rinsed and blocked with 1% BSA for 2 hours at 37° C. and rinsed before use. 2×10^4 c/well in basal medium without FCS were added and briefly sedimented by centrifugation (40×g). Cells were let adhere for 2 hours at 37° C. before peptides were added at graded concentrations. After 2 hours, wells were rinsed with warm PBS, and attached cells were fixed in 2% paraformaldehyde, stained with 0.5% crystal violet (Sigma Chemie) and quantified by O.D. reading at 620 nm (Packard Spectra Count). Results are given as O.D. values and represent the mean of duplicate wells ±s.d. of specific adhesion (= adhesion on ECM protein minus adhesion on BSA).
# α5β1 = target: T2, α5β1 (Homo sapiens, UniProt P05556+P08648); assay: Cell detachment assay, HUVEC on fibronectin; type: cell-based; conditions: graded peptide concentrations; 2 hours
# T2 construct: HUVEC adhere to immobilized fibronectin via αVβ3 and α5β1 integrins; endogenous in cells; host or cells: HUVEC (primary, passages 3 to 7)
# T2 sequence (P08648 42-894 limits assumed): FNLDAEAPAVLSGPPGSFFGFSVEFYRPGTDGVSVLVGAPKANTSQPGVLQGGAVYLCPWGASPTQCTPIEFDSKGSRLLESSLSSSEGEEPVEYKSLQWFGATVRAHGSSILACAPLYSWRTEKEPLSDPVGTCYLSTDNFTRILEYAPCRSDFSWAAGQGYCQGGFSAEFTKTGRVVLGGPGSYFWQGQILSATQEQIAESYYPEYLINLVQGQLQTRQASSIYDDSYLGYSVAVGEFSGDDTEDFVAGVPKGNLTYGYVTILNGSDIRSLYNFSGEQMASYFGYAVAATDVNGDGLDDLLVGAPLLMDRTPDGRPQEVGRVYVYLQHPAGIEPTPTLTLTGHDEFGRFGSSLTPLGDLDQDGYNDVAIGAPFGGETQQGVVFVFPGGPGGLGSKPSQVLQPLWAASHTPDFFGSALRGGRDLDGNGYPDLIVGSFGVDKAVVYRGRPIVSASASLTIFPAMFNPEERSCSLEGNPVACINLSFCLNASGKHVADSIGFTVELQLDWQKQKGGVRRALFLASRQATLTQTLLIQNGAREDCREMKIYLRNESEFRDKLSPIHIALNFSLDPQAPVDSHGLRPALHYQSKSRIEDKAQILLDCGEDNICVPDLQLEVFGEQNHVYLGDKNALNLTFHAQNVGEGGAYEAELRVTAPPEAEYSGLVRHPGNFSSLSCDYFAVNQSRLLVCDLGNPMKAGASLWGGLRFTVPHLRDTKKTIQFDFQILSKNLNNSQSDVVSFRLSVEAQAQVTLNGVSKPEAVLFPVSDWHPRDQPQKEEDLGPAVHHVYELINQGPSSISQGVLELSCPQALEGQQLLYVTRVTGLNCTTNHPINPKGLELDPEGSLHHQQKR
# T2 sequence (P08648 895-1049 partner limits assumed): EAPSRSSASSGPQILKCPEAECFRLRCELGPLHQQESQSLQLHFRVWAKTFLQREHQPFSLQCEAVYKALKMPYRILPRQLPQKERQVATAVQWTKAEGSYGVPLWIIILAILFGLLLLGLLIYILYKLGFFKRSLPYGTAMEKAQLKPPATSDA
# T2 sequence (P05556 21-798): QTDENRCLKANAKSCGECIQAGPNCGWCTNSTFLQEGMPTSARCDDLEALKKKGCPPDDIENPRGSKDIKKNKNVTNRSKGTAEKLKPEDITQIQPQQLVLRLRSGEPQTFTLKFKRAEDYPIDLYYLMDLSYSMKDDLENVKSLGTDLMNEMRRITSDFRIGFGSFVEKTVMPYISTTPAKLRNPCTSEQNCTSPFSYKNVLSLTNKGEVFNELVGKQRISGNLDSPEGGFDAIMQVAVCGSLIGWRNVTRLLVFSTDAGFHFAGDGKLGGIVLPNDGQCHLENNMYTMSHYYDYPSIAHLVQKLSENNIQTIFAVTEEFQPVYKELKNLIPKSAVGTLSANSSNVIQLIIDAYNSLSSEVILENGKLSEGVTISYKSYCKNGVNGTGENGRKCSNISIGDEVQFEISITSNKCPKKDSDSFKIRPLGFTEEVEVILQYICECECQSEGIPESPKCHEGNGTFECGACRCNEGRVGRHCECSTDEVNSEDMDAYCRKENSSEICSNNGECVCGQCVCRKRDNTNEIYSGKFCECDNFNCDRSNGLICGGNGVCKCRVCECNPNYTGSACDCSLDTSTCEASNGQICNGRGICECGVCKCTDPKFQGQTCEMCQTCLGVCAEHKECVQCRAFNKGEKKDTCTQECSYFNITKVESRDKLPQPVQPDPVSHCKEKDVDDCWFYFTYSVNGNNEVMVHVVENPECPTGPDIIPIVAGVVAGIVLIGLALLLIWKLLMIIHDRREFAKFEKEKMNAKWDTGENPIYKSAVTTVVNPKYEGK
# Description: as §1
# [3] = tested on: BN-175 syngeneic soft tissue sarcoma; assay: Isolated limb perfusion (ILP) of BN rats bearing BN-175 soft tissue sarcoma; type: in vivo; conditions: ILP 30 min; EMD121974 500 μg (plus 100 mg/kg i.p.); TNF 50 μg; 6 days after ILP
# Description: FIG. 7. Decreased integrin ligation enhances TNF cytotoxicity in in vivo. BN rats bearing the BN-175 syngeneic soft tissue sarcoma were treated with EMD121974 (□), TNF (Δ) or EMD121974/TNF (▪) by ILP technique. (◯) sham-treated rats. Tumor growth was measured for 6 days after ILP. Results represent the mean tumor volume ±s.e.m. (n=6). Small fragments of the syngeneic soft tissue sarcoma BN-175 were implanted in the right hind limb of male BN rats, and treatment started when diameter reached 12-14 mm (Manusama et al., Oncol Rep. 6, 173-177. (1999)). The femoral artery and vein were canulated with silastic tubing and collaterals occluded with a tourniquet. The perfusion was performed for 30 min with 5 ml Heamaccel® (2.4 ml/min) in which the drugs were added as boluses (EMD121974, 500 μg, end concentration in perfusate 170 μM; TNF, 50 μg). The perfusate was oxygenated and the leg kept on 38-39° C. with a warm mattress. Rats perfused with EMD121974 also received systemic administration of the peptide 2 hours before and 3 hours after ILP (100 mg/kg i.p.). Tumor diameter was measured in two directions by caliper measurements and tumor volume (V) was calculated (V= 0.4)(A^2×B, where B represents the largest diameter and A the diameter perpendicular to B). 6 rats were treated per group. Local and systemic side effects were evaluated as described (Manusama et al., Oncol. Rep. 6, 173-177. (1999)). […]
# BN175 tumor cells = assay: Sensitivity of BN175 tumor cells in vitro; type: cell-based, rat; conditions: unpublished observation
structure (smiles),measurement,setting,value
"CC(C)[C@H]1C(=O)N[C@@H](CCCN=C(N)N)C(=O)NCC(=O)N[C@@H](CC(=O)O)C(=O)N[C@H](Cc2ccccc2)C(=O)N1C [EMD121974, cyclo-(Arg-Gly-Asp-DPhe-NMeVal)]","cell viability / survival of fibronectin-adherent HUVEC, agent alone","HUVEC [1]; fibronectin-adherent, TNF 200 ng/ml ± IFNγ 330 ng/ml, EMD peptide 300 μM",neither TNF/IFNγ nor EMD121974 alone affected survival
same,"survival of HUVEC on fibronectin, combined exposure to TNF/IFNγ and peptide","HUVEC [1]; peptide 300 μM, TNF 200 ng/ml, IFNγ 330 ng/ml",reduced survival
same,"apoptosis and detachment of HUVEC on fibronectin, combined exposure to TNF/IFNγ and peptide",HUVEC [2],increased apoptosis and detachment
same,αVβ3-mediated HUVEC adhesion on gelatin,integrin αVβ3,disrupted
same,α5β1 component of the α5β1/αVβ3-mediated adhesion to fibronectin,α5β1,does not affect
same,tumor growth,[3],no impact on tumor growth
same,sensitivity of BN175 tumor cells to αVβ3 selective inhibitors,BN175 tumor cells,low sensitivity

# — patent publication US20090035270A1, “COMBINATION THERAPY USING ANTI-ANGIOGENIC AGENTS AND TNF alpha” (priority 2001, published 2009)
